Experimental data from ChEMBL document CHEMBL5465560, “Selectivity Literature for EUbOPEN Chemogenomic Library” (2024).
Each block holds one molecule with its values, some of them ahead of it.

Legend:
[1] = target: Proto-oncogene tyrosine-protein kinase ROS (Homo sapiens) (UniProt P08922); conditions: at 10 µM
[2] = target: Serine/threonine-protein kinase SBK1 (Homo sapiens) (UniProt Q52WX2); assay: Selectivity interaction (KinomeScan (DiscoverX)) EUB0000618a SBK1; conditions: at 10 µM
[3] = target: Serine/threonine-protein kinase PAK 2 (Homo sapiens) (UniProt Q13177); assay: Selectivity interaction (SelectScreen profiling (Invitrogen)) EUB0000607a PAK2; conditions: at 2 µM
[4] = target: Leucine-rich repeat serine/threonine-protein kinase 2 (Homo sapiens, UniProt Q5S007); conditions: at 1 µM
[5] = target: Tyrosine-protein kinase Fgr (Homo sapiens) (UniProt P09769); assay: Selectivity interaction (ActivX KiNativ screen (ex vivo kinase selectivity in human PBMCs)) EUB0001619a FGR; format: cell-based; conditions: PBMC, at 1 µM
[6] = target: Serine/threonine-protein kinase Nek4 (Homo sapiens) (UniProt P51957); assay: Selectivity interaction (KinomeScan (DiscoverX)) EUB0000595a NEK4; conditions: at 10 µM
[7] = target: Calcium/calmodulin-dependent protein kinase kinase 1 (Homo sapiens) (UniProt Q8N5S9); assay: Selectivity interaction (KinomeScan (DiscoverX)) EUB0000595a CAMKK1; conditions: at 10 µM
[8] = target: T1, Discoidin domain-containing receptor 2 (Homo sapiens) (UniProt Q16832); conditions: at 10 µM
T1 sequence (whole entry): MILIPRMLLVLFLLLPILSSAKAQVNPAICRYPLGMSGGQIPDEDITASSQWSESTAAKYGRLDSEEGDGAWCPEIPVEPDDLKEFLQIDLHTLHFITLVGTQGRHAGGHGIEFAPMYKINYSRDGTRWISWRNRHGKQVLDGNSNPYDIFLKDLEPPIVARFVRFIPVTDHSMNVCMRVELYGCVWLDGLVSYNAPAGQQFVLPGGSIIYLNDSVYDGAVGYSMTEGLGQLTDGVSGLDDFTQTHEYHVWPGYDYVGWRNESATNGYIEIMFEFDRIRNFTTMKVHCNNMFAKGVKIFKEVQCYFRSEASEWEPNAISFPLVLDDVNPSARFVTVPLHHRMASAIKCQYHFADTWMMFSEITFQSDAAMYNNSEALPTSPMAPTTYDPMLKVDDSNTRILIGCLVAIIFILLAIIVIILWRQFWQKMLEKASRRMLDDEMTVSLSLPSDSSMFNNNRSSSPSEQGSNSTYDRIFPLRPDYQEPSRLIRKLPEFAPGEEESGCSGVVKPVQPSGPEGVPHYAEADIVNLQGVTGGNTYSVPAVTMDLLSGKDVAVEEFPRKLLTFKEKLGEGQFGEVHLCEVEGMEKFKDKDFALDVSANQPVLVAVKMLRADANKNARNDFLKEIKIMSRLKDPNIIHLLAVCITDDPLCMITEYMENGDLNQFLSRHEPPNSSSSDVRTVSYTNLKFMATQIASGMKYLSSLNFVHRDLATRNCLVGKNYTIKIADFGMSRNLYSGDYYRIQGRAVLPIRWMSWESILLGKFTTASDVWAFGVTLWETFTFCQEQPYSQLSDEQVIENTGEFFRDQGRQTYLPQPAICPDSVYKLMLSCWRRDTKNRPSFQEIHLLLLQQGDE

[9] = target: T2, Protein kinase C iota type (Homo sapiens) (UniProt P41743); assay: Selectivity interaction (ActivX KiNativ screen (kinase selectivity in THP-1 cell lysates)) EUB0000639a PRKCI; format: subcellular; conditions: lysate, at 0.2 µM
T2 sequence (whole entry): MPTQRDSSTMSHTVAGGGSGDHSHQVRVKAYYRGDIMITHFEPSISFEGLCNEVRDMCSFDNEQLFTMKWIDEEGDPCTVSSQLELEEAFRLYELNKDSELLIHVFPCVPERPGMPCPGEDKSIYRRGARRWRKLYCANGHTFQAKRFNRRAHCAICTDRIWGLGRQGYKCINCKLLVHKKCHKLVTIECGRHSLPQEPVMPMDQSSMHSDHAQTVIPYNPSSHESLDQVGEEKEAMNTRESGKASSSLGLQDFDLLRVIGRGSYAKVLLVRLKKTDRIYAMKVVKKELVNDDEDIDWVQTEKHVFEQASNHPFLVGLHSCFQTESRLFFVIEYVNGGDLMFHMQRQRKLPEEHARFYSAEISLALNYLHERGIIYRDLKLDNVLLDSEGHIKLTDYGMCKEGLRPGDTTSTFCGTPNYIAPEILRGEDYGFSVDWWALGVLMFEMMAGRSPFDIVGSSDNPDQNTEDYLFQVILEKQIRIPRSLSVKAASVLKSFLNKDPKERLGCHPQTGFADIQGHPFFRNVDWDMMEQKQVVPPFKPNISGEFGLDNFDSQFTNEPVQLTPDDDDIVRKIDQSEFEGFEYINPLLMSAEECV

[10] = target: T3, Dual specificity mitogen-activated protein kinase kinase 3 (Homo sapiens) (UniProt P46734); assay: Selectivity interaction (ActivX KiNativ screen (kinase selectivity in THP-1 cell lysates)) EUB0000639a MAP2K3; format: subcellular; conditions: lysate, at 0.01 µM
T3 sequence (whole entry): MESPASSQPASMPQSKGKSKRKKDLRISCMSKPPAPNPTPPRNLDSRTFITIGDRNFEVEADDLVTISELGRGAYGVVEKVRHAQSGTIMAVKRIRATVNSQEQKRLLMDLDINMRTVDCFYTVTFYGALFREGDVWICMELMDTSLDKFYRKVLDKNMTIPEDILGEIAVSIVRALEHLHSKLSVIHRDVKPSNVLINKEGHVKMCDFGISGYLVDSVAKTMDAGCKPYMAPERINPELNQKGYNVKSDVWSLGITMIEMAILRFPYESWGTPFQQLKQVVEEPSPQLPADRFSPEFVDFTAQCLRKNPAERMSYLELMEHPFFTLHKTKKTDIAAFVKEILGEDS

[11] = target: DNA-dependent protein kinase catalytic subunit (Homo sapiens) (UniProt P78527); assay: Selectivity interaction (ActivX KiNativ screen (kinase selectivity in THP-1 cell lysates)) EUB0000639a PRKDC; format: subcellular; conditions: lysate, at 5 µM
[12] = target: Serine/threonine-protein kinase PLK3 (Homo sapiens, UniProt Q9H4B4)
[13] = target: Bromodomain-containing protein 4 (Homo sapiens, UniProt O60885); assay: Selectivity interaction (Human bromodomain panel (DSF assay)) EUB0000233b BRD4

Chain of Leucine-rich repeat serine/threonine-protein kinase 2 (Q5S007 whole entry): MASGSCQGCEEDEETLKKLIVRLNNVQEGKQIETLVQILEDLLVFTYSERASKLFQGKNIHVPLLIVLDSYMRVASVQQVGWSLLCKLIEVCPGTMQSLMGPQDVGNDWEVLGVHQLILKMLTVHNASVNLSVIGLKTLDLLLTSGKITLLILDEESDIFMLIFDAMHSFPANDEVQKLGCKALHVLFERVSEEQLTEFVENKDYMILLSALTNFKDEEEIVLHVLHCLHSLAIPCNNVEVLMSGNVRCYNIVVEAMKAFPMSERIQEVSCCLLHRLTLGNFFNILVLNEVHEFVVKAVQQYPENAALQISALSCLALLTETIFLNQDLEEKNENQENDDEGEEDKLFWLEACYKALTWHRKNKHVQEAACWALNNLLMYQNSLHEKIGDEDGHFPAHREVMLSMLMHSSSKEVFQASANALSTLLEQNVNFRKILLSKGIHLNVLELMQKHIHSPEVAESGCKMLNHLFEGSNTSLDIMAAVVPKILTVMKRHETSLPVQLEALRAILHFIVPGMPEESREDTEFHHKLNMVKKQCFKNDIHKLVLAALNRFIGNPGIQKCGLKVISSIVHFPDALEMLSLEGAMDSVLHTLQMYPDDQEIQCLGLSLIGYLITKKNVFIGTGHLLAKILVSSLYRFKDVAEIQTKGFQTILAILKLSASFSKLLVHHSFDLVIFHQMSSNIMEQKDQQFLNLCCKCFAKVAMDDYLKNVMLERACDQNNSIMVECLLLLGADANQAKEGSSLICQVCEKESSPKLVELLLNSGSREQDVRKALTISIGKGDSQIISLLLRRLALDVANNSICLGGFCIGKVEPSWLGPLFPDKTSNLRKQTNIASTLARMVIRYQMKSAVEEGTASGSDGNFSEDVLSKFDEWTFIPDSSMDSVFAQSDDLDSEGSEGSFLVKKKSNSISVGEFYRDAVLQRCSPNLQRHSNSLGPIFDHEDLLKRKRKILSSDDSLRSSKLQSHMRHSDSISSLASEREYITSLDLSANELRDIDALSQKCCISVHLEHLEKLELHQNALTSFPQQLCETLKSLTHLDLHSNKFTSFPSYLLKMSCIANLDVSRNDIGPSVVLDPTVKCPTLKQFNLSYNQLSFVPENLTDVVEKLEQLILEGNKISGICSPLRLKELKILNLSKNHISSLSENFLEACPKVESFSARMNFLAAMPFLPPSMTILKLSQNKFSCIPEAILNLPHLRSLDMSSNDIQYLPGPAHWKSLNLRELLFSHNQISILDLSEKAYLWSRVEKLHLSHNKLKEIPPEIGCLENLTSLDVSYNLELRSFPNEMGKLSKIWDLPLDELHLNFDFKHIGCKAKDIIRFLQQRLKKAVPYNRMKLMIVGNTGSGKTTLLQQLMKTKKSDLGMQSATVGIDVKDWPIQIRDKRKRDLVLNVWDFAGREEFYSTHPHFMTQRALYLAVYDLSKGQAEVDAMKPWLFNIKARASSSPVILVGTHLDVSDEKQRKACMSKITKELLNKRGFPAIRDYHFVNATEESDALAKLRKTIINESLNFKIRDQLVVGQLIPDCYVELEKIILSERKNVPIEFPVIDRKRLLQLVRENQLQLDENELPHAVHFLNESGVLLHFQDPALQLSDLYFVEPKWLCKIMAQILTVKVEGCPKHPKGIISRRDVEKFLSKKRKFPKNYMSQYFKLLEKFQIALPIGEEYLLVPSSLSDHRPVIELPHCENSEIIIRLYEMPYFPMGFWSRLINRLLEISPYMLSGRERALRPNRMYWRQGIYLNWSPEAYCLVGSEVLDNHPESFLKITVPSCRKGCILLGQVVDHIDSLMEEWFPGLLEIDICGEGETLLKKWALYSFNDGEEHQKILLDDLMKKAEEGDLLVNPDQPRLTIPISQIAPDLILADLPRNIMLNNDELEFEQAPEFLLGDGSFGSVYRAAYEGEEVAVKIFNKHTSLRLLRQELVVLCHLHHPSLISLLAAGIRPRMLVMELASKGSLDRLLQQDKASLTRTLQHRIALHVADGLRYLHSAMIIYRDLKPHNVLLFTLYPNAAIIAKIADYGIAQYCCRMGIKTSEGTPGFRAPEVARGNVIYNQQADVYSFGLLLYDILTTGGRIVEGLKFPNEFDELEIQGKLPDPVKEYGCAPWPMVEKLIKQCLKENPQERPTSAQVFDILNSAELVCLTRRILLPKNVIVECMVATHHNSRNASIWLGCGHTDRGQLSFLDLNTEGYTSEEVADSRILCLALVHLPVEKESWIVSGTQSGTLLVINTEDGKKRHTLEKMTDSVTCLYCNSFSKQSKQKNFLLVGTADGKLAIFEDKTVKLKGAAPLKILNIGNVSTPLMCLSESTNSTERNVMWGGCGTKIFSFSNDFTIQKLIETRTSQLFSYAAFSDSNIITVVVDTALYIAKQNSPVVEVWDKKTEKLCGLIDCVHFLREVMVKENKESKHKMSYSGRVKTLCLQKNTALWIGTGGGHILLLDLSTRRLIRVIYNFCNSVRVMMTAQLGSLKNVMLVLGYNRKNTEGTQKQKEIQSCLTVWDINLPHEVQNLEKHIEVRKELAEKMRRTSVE
Chain of Serine/threonine-protein kinase PLK3 (Q9H4B4 whole entry): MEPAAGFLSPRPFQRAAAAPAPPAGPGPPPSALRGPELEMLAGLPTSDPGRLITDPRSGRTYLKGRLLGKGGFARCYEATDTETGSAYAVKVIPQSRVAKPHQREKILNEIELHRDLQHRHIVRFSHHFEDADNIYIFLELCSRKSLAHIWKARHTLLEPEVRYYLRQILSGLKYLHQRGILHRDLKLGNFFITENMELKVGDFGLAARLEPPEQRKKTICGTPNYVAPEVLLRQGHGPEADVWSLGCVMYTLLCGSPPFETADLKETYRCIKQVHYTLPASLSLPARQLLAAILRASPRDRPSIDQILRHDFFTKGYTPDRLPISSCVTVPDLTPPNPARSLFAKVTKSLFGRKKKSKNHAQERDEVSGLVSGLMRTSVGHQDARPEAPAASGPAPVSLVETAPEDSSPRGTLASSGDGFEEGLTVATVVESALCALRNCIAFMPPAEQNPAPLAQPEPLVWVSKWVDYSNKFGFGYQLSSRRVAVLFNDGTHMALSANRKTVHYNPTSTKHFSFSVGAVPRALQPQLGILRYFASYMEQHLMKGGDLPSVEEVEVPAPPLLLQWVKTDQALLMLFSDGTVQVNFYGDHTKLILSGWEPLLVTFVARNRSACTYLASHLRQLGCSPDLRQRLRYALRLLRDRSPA
Chain of Serine/threonine-protein kinase SBK1 (Homo sapiens) (Q52WX2 whole entry): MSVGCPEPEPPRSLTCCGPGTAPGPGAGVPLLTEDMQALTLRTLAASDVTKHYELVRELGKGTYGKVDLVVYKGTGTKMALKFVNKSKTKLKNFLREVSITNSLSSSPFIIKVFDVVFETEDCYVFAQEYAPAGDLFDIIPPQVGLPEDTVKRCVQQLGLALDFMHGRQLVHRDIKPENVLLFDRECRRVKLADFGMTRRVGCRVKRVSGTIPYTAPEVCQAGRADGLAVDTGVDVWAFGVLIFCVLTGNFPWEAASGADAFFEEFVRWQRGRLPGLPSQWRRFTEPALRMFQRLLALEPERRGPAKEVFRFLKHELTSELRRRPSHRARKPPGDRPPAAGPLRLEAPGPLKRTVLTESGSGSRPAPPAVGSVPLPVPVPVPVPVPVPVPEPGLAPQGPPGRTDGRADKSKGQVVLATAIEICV
Chain of Tyrosine-protein kinase Fgr (Homo sapiens) (P09769 2-529 limits assumed): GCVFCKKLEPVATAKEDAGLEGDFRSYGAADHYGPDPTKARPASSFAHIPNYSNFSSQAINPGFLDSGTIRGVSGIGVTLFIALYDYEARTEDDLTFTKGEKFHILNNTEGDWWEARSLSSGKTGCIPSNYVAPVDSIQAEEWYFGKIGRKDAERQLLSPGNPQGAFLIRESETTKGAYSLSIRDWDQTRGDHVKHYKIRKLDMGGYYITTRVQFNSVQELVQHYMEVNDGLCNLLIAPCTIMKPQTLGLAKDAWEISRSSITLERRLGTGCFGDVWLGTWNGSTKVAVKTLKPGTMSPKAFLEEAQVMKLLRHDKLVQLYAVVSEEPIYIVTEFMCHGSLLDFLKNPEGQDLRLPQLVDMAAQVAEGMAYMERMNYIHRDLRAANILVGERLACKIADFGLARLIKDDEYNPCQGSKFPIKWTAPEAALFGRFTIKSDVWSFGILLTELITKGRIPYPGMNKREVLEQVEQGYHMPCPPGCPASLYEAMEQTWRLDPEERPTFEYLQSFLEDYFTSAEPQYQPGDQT
Chain of Serine/threonine-protein kinase Nek4 (Homo sapiens) (P51957 whole entry, looked up): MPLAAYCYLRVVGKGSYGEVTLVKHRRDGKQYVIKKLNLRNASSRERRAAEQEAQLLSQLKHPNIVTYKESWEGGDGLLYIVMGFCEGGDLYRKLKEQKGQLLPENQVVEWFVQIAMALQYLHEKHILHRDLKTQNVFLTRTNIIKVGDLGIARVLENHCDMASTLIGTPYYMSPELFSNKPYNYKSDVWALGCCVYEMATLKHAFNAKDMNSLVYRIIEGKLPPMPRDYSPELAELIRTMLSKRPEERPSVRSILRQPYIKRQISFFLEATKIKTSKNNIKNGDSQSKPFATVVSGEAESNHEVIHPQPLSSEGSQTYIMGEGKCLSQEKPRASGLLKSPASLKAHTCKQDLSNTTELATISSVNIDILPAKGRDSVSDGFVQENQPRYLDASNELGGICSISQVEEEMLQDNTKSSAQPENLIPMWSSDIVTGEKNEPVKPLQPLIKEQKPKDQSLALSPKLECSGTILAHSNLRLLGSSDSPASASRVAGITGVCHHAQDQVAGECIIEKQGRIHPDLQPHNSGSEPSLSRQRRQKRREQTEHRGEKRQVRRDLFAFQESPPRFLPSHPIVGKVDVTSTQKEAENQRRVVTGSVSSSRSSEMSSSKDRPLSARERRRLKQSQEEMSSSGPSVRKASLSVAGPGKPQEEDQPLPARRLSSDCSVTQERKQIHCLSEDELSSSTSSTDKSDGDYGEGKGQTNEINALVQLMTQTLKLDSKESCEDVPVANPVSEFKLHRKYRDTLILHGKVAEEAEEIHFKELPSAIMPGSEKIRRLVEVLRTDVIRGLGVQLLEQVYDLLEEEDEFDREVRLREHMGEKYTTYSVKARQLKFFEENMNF

% of control [1]: 100%
SMILES: CCN(CC)CCCCNc1ncc2cc(-c3cc(OC)cc(OC)c3)c(NC(=O)NC(C)(C)C)nc2n1

SMILES: O[C@H]1CC[C@H](Nc2ncc3nc(Nc4c(F)cc(F)cc4F)n([C@H]4CCOC4)c3n2)CC1
% of control [2]: 73%

SMILES: CNC(=O)Nc1ccc(-c2nc(N3CC4CCC(C3)O4)c3cnn(C4CCC5(CC4)OCCO5)c3n2)cc1
% of inhibition [3]: 15%

SMILES: N#Cc1cccc(-c2c[nH]c3ncnc(N4CCOCC4)c23)c1
% of control [4]: 43%
% of inhibition [5]: -34%

SMILES: COCC(=O)NC/C=C/c1ccc2ncnc(Nc3ccc(Oc4ccc(C)nc4)c(C)c3)c2c1 [CP-724714]
% of control [6]: 100%
% of control [7]: 96%

SMILES: Cc1cc([C@@H](C)Nc2ccccc2C(=O)O)c2nc(N3CCOCC3)cc(=O)n2c1 [AZD-6482]
% of control [8]: 83%

% of inhibition [9]: 0%
% of inhibition [10]: 9%
% of inhibition [11]: -11.7%
SMILES: CC[C@@H]1[C@H](F)C(=O)N[C@@H]1COc1nccc2cc(C(N)=O)c(OC)cc12 [ZIMLOVISERTIB]

IC50 [12]: > 10 µM
SMILES: CCc1cccc(CC)c1NC(=O)c1nn(C)c2c1CCc1cnc(Nc3ccc(C(=O)NC4CCN(C)CC4)cc3OC(F)(F)F)nc1-2

dTM [13]: < 2 K
SMILES: CN(C)CCCOc1ccc(-c2cc(NCCCn3cccn3)nc(S(C)(=O)=O)n2)cc1
